The source of these data is ChEMBL document CHEMBL1795284, “Total synthesis of racemic and (R) and (S)-4-methoxyalkanoic acids and their antifungal activity” (2011).

What all share (type): functional
One test deals with Aspergillus niger. Put plainly: Antifungal activity against Aspergillus niger MTCC 281 after 18 hrs by microtiter broth dilution method. As to conditions: MTCC 281, 18 h. (Dilution methods test growth across graded concentrations, often in twofold steps.)
The test system of test [1] is Candida albicans. Put plainly: Antifungal activity against Candida albicans MTCC 4748 after 18 hrs by microtiter broth dilution method. As to conditions: MTCC 4748, 18 h.
Test [2] relates to Candida albicans. Put plainly: Antifungal activity against Candida albicans MTCC 227 after 18 hrs by microtiter broth dilution method. As to conditions: MTCC 227, 18 h.
The subject of a further test is Candida parapsilosis. Briefly: Antifungal activity against Candida parapsilosis MTCC 1744 after 18 hrs by microtiter broth dilution method. The note with it: Lodderomyces parapsilosis, MTCC 1744, 18 h.
In a further test the test system is Pichia kudriavzevii. Briefly: Antifungal activity against Issatchenkia orientalis MTCC 3020 after 18 hrs by microtiter broth dilution method. As to conditions: MTCC 3020, 18 h.
In test [3] the test system is Candida albicans. Briefly: Antifungal activity against Candida albicans MTCC 3017 after 18 hrs by microtiter broth dilution method. The note with it: MTCC 3017, 18 h.

The structures appear in SMILES notation. ≈ marks a conversion by molar mass, not a printed value.

One may read the MIC as the least concentration at which growth counts as inhibited. A higher MIC goes with a need for much substance.

In the case of `CCCCCC[C@H](CCC(=O)O)OC`, the MIC in the test with Aspergillus niger worked out at 19 µg/mL (≈ 93.9 µM); with Candida albicans [1], 19 µg/mL (≈ 93.9 µM); in the test with Candida albicans [2] it was 19 µg/mL (≈ 93.9 µM); in the test with Candida parapsilosis, 625 µg/mL (≈ 3090 µM); with Pichia kudriavzevii, 19 µg/mL (≈ 93.9 µM); with Candida albicans [3], 312 µg/mL (≈ 1540 µM).
As to `CCCCCCC(CCC(=O)O)OC` (racemic), the MIC with Aspergillus niger was 631 µg/mL (≈ 3120 µM); in the test on Candida albicans [1], 156 µg/mL (≈ 771 µM); in the test with Candida albicans [2], 625 µg/mL (≈ 3090 µM); in the test with Candida parapsilosis, 5010 µg/mL (≈ 24800 µM); in the test on Pichia kudriavzevii, 1250 µg/mL (≈ 6180 µM); against Candida albicans [3], 5010 µg/mL (≈ 24800 µM).
As for `CCCCCCC[C@H](CCC(=O)O)OC`, the MIC amounted to 168 µg/mL (≈ 777 µM) against Aspergillus niger; 78 µg/mL (≈ 361 µM) in the test with Candida albicans [1]; 156 µg/mL (≈ 721 µM) with Candida albicans [2]; 312 µg/mL (≈ 1440 µM) against Pichia kudriavzevii; 1250 µg/mL (≈ 5780 µM) in the test with Candida albicans [3].
Take `CCCCCCC[C@@H](CCC(=O)O)OC`: the MIC against Aspergillus niger came to 82 µg/mL (≈ 379 µM); in the test with Candida albicans [1], 156 µg/mL (≈ 721 µM); with Candida albicans [2], 78 µg/mL (≈ 361 µM); in the test on Candida parapsilosis it was 2500 µg/mL (≈ 11600 µM); with Pichia kudriavzevii, 2500 µg/mL (≈ 11600 µM); against Candida albicans [3] it was 1250 µg/mL (≈ 5780 µM).
Consider `CCCCCC[C@@H](CCC(=O)O)OC`, for which the MIC against Aspergillus niger was 1240 µg/mL (≈ 6120 µM); against Candida albicans [1], 39 µg/mL (≈ 193 µM); against Candida albicans [2] it was 1250 µg/mL (≈ 6180 µM); against Candida parapsilosis, 156 µg/mL (≈ 771 µM); with Pichia kudriavzevii, 312 µg/mL (≈ 1540 µM); with Candida albicans [3] it was 156 µg/mL (≈ 771 µM).
In the case of `OC(Cn1cncn1)(Cn1cncn1)c1ccc(F)cc1F` [FLUCONAZOLE], the MIC with Aspergillus niger turned out to be 34 µg/mL (≈ 111 µM); in the test on Candida albicans [1] it was 32 µg/mL (≈ 104 µM); against Candida albicans [2], 32 µg/mL (≈ 104 µM); in the test with Candida parapsilosis, 16 µg/mL (≈ 52.2 µM); against Pichia kudriavzevii it was 128 µg/mL (≈ 418 µM); with Candida albicans [3] it was 64 µg/mL (≈ 209 µM).
`CCCCCCCC(CCC(=O)O)OC` (racemic): the MIC against Aspergillus niger was 164 µg/mL (≈ 758 µM); against Candida albicans [1], 19 µg/mL (≈ 87.8 µM); in the test on Candida albicans [2], 156 µg/mL (≈ 721 µM); against Candida parapsilosis, 625 µg/mL (≈ 2890 µM); with Pichia kudriavzevii, 312 µg/mL (≈ 1440 µM); with Candida albicans [3] it was 78 µg/mL (≈ 361 µM).
